Results as given in PubChem BioAssay AID330 (DTP/NCI, 2004).
Where “and” joins values, the source holds several entries; their conditions need not be identical. Equal entries are not always repeated. Inconclusive results and toxic doses are left out. Numbered stars: 1 amine (or outer) side, 2 acyl side, 3 side chain; on linkers, the order of the positions; unused ones are H or OH. Bridge positions count the residues as written; N and C are the ends. Square brackets hold non-standard residues; d marks the D form. Peptide text beside a SMILES is read from it. I, II: the chains in the order shown. Actinocin(9to1) = Cc1c2oc3c(C)ccc(C(=O)[*:1])c3nc-2c(C(=O)[*:2])c(N)c1=O; NMeV = CN[CH](C(=O)O)C(C)C; Pip = O=C(O)[CH]1CCCCN1; Sar = CNCC(=O)O

System: P388 leukemia ip, CD2F1 mice, survival T/C
Assay: NCI In Vivo Anticancer Drug Screen. Data for tumor model P388 Leukemia (intraperitoneal) in CD2F1 (CDF1) mice
Conditions: endpoint: median survival time, higher = longer survival
Method in brief: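 Mice carrying the transplanted tumor received test compound or vehicle. Survival was recorded in each group, and the value is the treated-group measurement divided by that of the vehicle-treated control group.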

[1] = dose: 12.5 mg/kg/injection, schedule: Q01DX009 (ip), vehicle: saline with Tween-80
[2] = dose: 50.0 mg/kg/injection, schedule: Q01DX009 (ip), vehicle: saline with Tween-80

N#Cc1ccc(C(N)=O)c(C(N)=O)c1
T/C (dose: 50.0 mg/kg/injection, schedule: Q01DX005 (ip), vehicle: saline with Tween-80): 98 % of control | T/C (dose: 100.0 mg/kg/injection, schedule: Q01DX005 (ip), vehicle: saline with Tween-80): 102 % of control | T/C (dose: 200.0 mg/kg/injection, schedule: Q01DX005 (ip), vehicle: saline with Tween-80): 93 % of control

CC(CN1CC(=O)NC(=O)C1)N1CC(=O)NC(=O)C1 (stereo not drawn)
T/C (dose: 6.48 mg/kg/injection, schedule: Q04DX002 (ip), vehicle: saline): 117 % of control | T/C (dose: 50.0 mg/kg/injection, schedule: Q04DX002 (ip), vehicle: Klucel (hydroxypropylcellulose) (HPC)): 123 % of control | T/C (dose: 64.8 mg/kg/injection, schedule: Q04DX003 (ip), vehicle: saline): 119 % of control | T/C (dose: 77.8 mg/kg/injection, schedule: Q04DX002 (ip), vehicle: saline with Tween-80): 118 % of control | T/C (dose: 180.0 mg/kg/injection, schedule: Q04DX002 (ip), vehicle: saline): 156 % of control | T/C (dose: 180.0 mg/kg/injection, schedule: Q04DX003 (ip), vehicle: saline): 161 % of control | T/C (dose: 200.0 mg/kg/injection, schedule: Q04DX002 (ip), vehicle: Klucel (hydroxypropylcellulose) (HPC)): 153 % of control and 163 % of control | T/C (dose: 216.0 mg/kg/injection, schedule: Q04DX002 (ip), vehicle: saline with Tween-80): 152 % of control | T/C (dose: 300.0 mg/kg/injection, schedule: Q04DX002 (ip), vehicle: saline): 174 % of control | T/C (dose: 300.0 mg/kg/injection, schedule: Q04DX003 (ip), vehicle: saline): 214 % of control and 217 % of control | T/C (dose: 360.0 mg/kg/injection, schedule: Q04DX002 (ip), vehicle: saline with Tween-80): 195 % of control | T/C (dose: 400.0 mg/kg/injection, schedule: Q04DX002 (ip), vehicle: Klucel (hydroxypropylcellulose) (HPC)): 223 % of control and 94 % of control | T/C (dose: 500.0 mg/kg/injection, schedule: Q04DX002 (ip), vehicle: saline): 100 % of control | T/C (dose: 500.0 mg/kg/injection, schedule: Q04DX003 (ip), vehicle: saline): 118 % of control and 219 % of control | T/C (dose: 600.0 mg/kg/injection, schedule: Q04DX002 (ip), vehicle: saline with Tween-80): 213 % of control

CNCCNc1ccc(C)c2sc3ccc(O)cc3c(=O)c12
T/C (dose: 25.0 mg/kg/injection, schedule: Q01DX009 (ip), vehicle: Klucel (hydroxypropylcellulose) (HPC)): 95 % of control

Cc1c2oc3c(C)ccc(C(=O)NC4C(=O)NC(C(C)C)C(=O)N5CCCCC5C(=O)N(C)CC(=O)N(C)C(C(C)C)C(=O)OC4C)c3nc-2c(C(=O)NC2C(=O)NC(C(C)C)C(=O)N3CCCCC3C(=O)N(C)CC(=O)N(C)C(C(C)C)C(=O)OC2C)c(N)c1=O (stereo not drawn) (I: TV[Pip][Sar][NMeV] / II: TV[Pip][Sar][NMeV]; ester I:1-I:C, II:1-II:C; linker I:N-II:N via Actinocin(9to1); configuration not given here)
T/C (dose: 0.39 mg/kg/injection, schedule: Q01DX009 (ip), vehicle: saline with Tween-80): 110 % of control | T/C (dose: 0.78 mg/kg/injection, schedule: Q01DX009 (ip), vehicle: saline with Tween-80): 119 % of control | T/C (dose: 1.56 mg/kg/injection, schedule: Q01DX009 (ip), vehicle: saline with Tween-80): 180 % of control | T/C (dose: 3.12 mg/kg/injection, schedule: Q01DX009 (ip), vehicle: saline with Tween-80): 190 % of control | T/C (dose: 6.25 mg/kg/injection, schedule: Q01DX009 (ip), vehicle: saline with Tween-80): 165 % of control and 209 % of control | T/C [1]: 195 % of control

O=C(O)c1ccccc1-c1nc2ccccc2[nH]1
T/C (dose: 100.0 mg/kg/injection, schedule: Q01DX001 (ip), vehicle: saline with Tween-80): 99 % of control

O=C(O)Cc1c[nH]c2cc(Cl)ccc12
T/C [2]: 100 % of control | T/C (dose: 100.0 mg/kg/injection, schedule: Q01DX009 (ip), vehicle: saline with Tween-80): 102 % of control | T/C (dose: 200.0 mg/kg/injection, schedule: Q01DX009 (ip), vehicle: saline with Tween-80): 105 % of control

O=C(O)c1c[nH]c2cc([N+](=O)[O-])ccc2c1=O
T/C [1]: 94 % of control | T/C (dose: 25.0 mg/kg/injection, schedule: Q01DX009 (ip), vehicle: saline with Tween-80): 88 % of control | T/C [2]: 87 % of control | T/C (dose: 50.0 mg/kg/injection, schedule: Q01DX009 (ip), vehicle: saline): 104 % of control
